Reference: patent US8569243B2, “Sirtuin 6 activating peptides and cosmetic or pharmaceutical composition containing them” (ISP Investments Inc., priority 2010, dated 2013)
Where no end group is shown, it is not given here.

Assays:
TRF2 protein [1] = assay: TRF2 immunolabelling in normal human keratinocytes (NHK), long-term culture; type: cell-based
Experimental: (§1) The goal of this study is to determine the influence of peptide SEQ ID No. 4 on TRF2 protein expression in human skin, a protein specifically associated with telomeres and involved in their maintenance. To do this, specific labeling by immunofluorescence was carried out on normal human keratinocytes (NHK) culture and on normal human fibroblast cultures on a long-term basis.
(§2) Protocol: NHK or normal human fibroblasts in culture are treated once per day with a solution at 10^−6M or at 3×10^−6M of peptide SEQ ID No. 4, between passage 5 and passage 17 (or 12 passages) for fibroblasts and between passage 1 and passage 2 (or 1 passage and 10 days of treatment) for NHK.
(§3) For immunolabelling by anti TRF2 antibodies, the cells are washed and fixed with paraformaldehyde at 3.7% for 10 minutes. The cells are then incubated in the presence of a specific anti TRF2 antibody (Abeam, ref ab13579, polyclonal mouse), and then a secondary suitable antibody, coupled with a fluorescent dye. After mounting in a particular medium, the slides are observed by epifluorescence microscope (Nikon Eclipse E 80i microscope). Fluorescence intensity is quantified by analyzing the image using the Image-Pro Analyser version 5 software.

TRF2 protein [2] = assay: TRF2 immunolabelling in normal human fibroblasts, long-term culture; type: cell-based
Experimental: as §1, §2, §3

sirtuin 6 (SIRT6) [3] = assay: Sirtuin 6 immunolabelling in NHK after oxidative stress by H2O2; type: cell-based, human
Experimental: The goal of this study is to determine the protective effect of peptide SEQ ID No. 5 on keratinocytes during oxidative stress. To do this, the expression of Sirtuin 6 was qualitatively and quantitatively evaluated by specific immunolabelling after oxidative stress by H2O2.
Protocol: The NHK in culture are treated for 24 hours with a solution at 10^−6M or 3×10^−6M of peptide SEQ ID No. 5. The cells are then incubated in the presence of H2O2 at 2 mM, rinsed and then treated for another 24 hours with a solution at 10^−6M or 3×10^−6M of peptide SEQ ID No. 5. A control that was not treated and not subjected to the H2O2 stress (control 0), as well as a control that was not treated but was subjected to the H2O2 stress (control 1) were carried out.
as §3, with “SIRT6” for “TRF2”, “(Abcam,” for “(Abeam,”, “ab62738,” for “ab13579,”

normal human fibroblasts = assay: Comet assay after UVB irradiation of normal human fibroblasts; type: cell-based; settings: peptide 3×10^−6 M 24 h before and 24 h after UVB 60 mJ/cm^2
Experimental: The goal of this study is to determine the protective effect of peptide SEQ ID No. 5 on damage caused to the DNA by UV radiation. To do this, a comet assay, that enables damage caused to the DNA at the cellular level to be quantified, was performed.
Protocol: Normal human fibroblasts are cultured for 24 hours with the peptide of sequence SEQ ID No. 5 at a concentration of 10^−6M or 3×10^−6M, and then irradiated with UVB radiation at a rate of 60 mJ/cm^2, and then treated again for 24 hours by the peptide at a concentration of 10^−6M or 3×10^−6M. A control condition is carried out in the absence of treatment. The cells are then detached from their support by the trypsin, then centrifuged at 1200 rotations/min for 10 minutes in order to concentrate and count them.
A defined number of cells (25,000 cells) is then included in a Low Melting agarose gel at 0.75%, and then deposited on a glass slide previously covered with agarose at 1%. The slides are then immersed in a lysis solution for 1½ hours at 4° C., and then in an alkaline solution for 20 min at 4° C. The cells are thus lyzed and the DNA is denatured. […]
Quantification software enables the mean “Tail Moment” (or length of the comet tail) applied to each condition tested to be determined This parameter provides information on the level of DNA damage: the higher this parameter, the greater the DNA degradation.

involucrin = assay: Epidermal differentiation marker immunolabelling in NHK: involucrin; type: cell-based, human; settings: 10^−6 M or 3×10^−6 M, 2 passages and 11 days of treatment
Experimental: (§4) The goal of this study is to determine the influence of peptide SEQ ID No. 5 on epidermal differentiation. To do this, the expression of the main epidermal differentiation markers, specifically expressed in the keratinocytes of suprabasal layers cultivated on a long-term basis, was studied. The markers tested are transglutaminase 1 and involucrin.
(§5) Protocol: NHK in culture are treated once per day with a solution at 10^−6M or at 3×10^−6M of peptide SEQ ID No. 5, between passage 1 and passage 3 (or 2 passages and 11 days of treatment). The cells are then washed and fixed. After unmasking the specific sites, the cells are incubated in the presence of a specific antibody directed against TG1 (TEBU, ref sc-25786, polyclonal rabbit), a specific antibody directed against involucrin (Novocastra NCL-INV, mouse monoclonal, clone SYS), and then incubated in the presence of a suitable secondary antibody, coupled with a fluorescent dye. For greater ease of observation, the cell nuclei may be counterstained by DAPI (4′,6′ Di Amidino-2-Phenylindole), a fluorescent blue molecule capable of strongly bonding to DNA). After mounting in a particular medium, the slides are observed by epifluorescence microscope (Nikon Eclipse E 80i microscope).

sirtuin 6 (SIRT6) [4] = assay: Sirtuin 6 immunolabelling (immunofluorescence) in normal human fibroblasts; type: cell-based; settings: for SIRT6 fluorescence versus control conditions: 10^−6M or 3×10^−6 M, all conditions tested (short- and long-term); for sirtuin 6 expression stimulation effect in long-term treatment: passage 5 to passage 17
Experimental: (§6) The object of this study is to determine the influence of peptides SEQ ID No. 5 and SEQ ID No. 7 on Sirtuin 6 expression in human skin. To do this, specific labeling by immunofluorescence was carried out on normal human keratinocytes (NHK) culture and on normal human fibroblast cultures.
(§7) Protocol: NHK or normal human fibroblasts are treated once per day with a solution at 10^−6M or at 3×10^−6M of peptide SEQ ID No. 5 or peptide SEQ ID No. 7.
(§8) Short-term treatment studies for 24, 48 and 72 hours were carried out.
(§9) Long-term treatment studies were also carried out between passage 5 and passage 17 (or 12 passages) for fibroblasts and between passage 3 and passage 5 (or 2 subcultures) for NHK.
as §3, with “SIRT6” for “TRF2”, “ab62738,” for “ab13579,”, “rabbit),” for “mouse),”

collagen I = assay: Collagen I immunolabelling in normal human fibroblasts, long-term culture; type: cell-based; settings: 10^−6M or 3×10^−6M, passage 5 to 17
Experimental: (§10) The goal of this study is to determine the influence of peptide SEQ ID No. 5 on the expression of dermal extracellular matrix molecules. To do this, the expression of collagens I and III in normal human fibroblasts cultivated on a long-term basis was studied.
(§11) Protocol: Normal human fibroblasts are treated once per day with a solution at 10^−6 M or at 3×10^−6 M of peptide SEQ ID No. 5, between passage 5 and passage 17 (or 12 passages). The cells are then washed and fixed with cold methanol for 5 minutes. After unmasking specific sites, the cells are incubated in the presence of a specific antibody directed against collagen I (TEBU, ref 600-401-103, polyclonal rabbit) or against collagen III (TEBU, ref 600-401-105, polyclonal rabbit), and then incubated in the presence of a suitable secondary antibody, coupled with a fluorescent dye. After mounting in a particular medium, the slides are observed by epifluorescence microscope (Nikon Eclipse E 80i microscope).

transglutaminase 1 (TG1) = assay: Epidermal differentiation marker immunolabelling in NHK: transglutaminase 1; type: cell-based, human; settings: 10^−6 M or 3×10^−6 M, 2 passages and 11 days of treatment
Experimental: as §4, §5

collagen III = assay: Collagen III immunolabelling in normal human fibroblasts, long-term culture; type: cell-based; settings: 10^−6M or 3×10^−6M, passage 5 to 17
Experimental: as §10, §11

sirtuin 6 (SIRT6) [5] = assay: Sirtuin 6 immunolabelling (immunofluorescence) in normal human keratinocytes (NHK); type: cell-based; settings: for SIRT6 fluorescence versus control conditions: 10^−6M or 3×10^−6 M, all conditions tested (short- and long-term); for sirtuin 6 expression stimulation effect in long-term treatment: passage 3 to passage 5
Experimental: as §6, §7, §8, §9
as §3, with “SIRT6” for “TRF2”, “ab62738,” for “ab13579,”, “rabbit),” for “mouse),”

[6] = 10^−6 M or 3×10^−6 M, long-term

Row | Substance | TRF2 fluorescence versus control conditions (TRF2 protein [1]; [6]) | maximum increase of the TRF2 fluorescence with relation to the control cells (TRF2 protein [1]; treated for 10 days, 3×10^−6 M peptide) | TRF2 fluorescence versus control conditions (TRF2 protein [2]; [6]) | maximum increase of the TRF2 fluorescence with relation to the control cells (TRF2 protein [2]; treated for 12 subcultures, 10^−6 M peptide) | increase in SIRT6 expression with relation to control 1 (untreated, H2O2 stress) (sirtuin 6 (SIRT6) [3]; peptide 3×10^−6 M 24 h before and 24 h after H2O2 2 mM) | increase in SIRT6 expression with relation to control 1 (untreated, H2O2 stress) (sirtuin 6 (SIRT6) [3]; peptide 10^−6M 24 h before and 24 h after H2O2 2 mM) | reduction of the Tail Moment compared to the control conditions (normal human fibroblasts) | involucrin fluorescence versus control conditions (involucrin) | SIRT6 fluorescence versus control conditions (sirtuin 6 (SIRT6) [4]) | sirtuin 6 expression stimulation effect in long-term treatment (sirtuin 6 (SIRT6) [4]) | maximum increase of the SIRT6 fluorescence with relation to the control cells (sirtuin 6 (SIRT6) [4]; treated 24 hours, 10^−6 M peptide) | collagen I fluorescence versus control conditions (collagen I) | transglutaminase 1 fluorescence versus control conditions (transglutaminase 1 (TG1)) | collagen III fluorescence versus control conditions (collagen III) | SIRT6 fluorescence versus control conditions (sirtuin 6 (SIRT6) [5]) | sirtuin 6 expression stimulation effect in long-term treatment (sirtuin 6 (SIRT6) [5]) | maximum increase of the SIRT6 fluorescence with relation to the control cells (sirtuin 6 (SIRT6) [5]; treated 72 hours, 3×10^−6M peptide)
1 | GAGVSAE [SEQ ID No. 4] | more intense fluorescence | 39% | more intense fluorescence | 63% | – | – | – | – | – | – | – | – | – | – | – | – | –
2 | Gly-Ala-Gly-Val-Ser-Ala-Glu-NH2 (GAGVSAE-NH2) [SEQ ID No. 5] | – | – | – | – | 20% | 16% | 24.8% | More intense fluorescence | more intense fluorescence | maintained for the long term | 47% | More intense fluorescence | More intense fluorescence | More intense fluorescence | more intense fluorescence | maintained for the long term | 35%
3 | Thr-Gln-Asn-Ile-Asp-Glu-Leu-NH2 (TQNIDEL-NH2) [SEQ ID No. 7] | – | – | – | – | – | – | – | – | more intense fluorescence | maintained for the long term | – | – | – | – | more intense fluorescence | maintained for the long term | –
